Reference: patent US20060189608A1, “Methods for treating ocular angiogenesis, retinal edema, retinal ischemia, and diabetic retinopathy using selective RTK inhibitors” (Alcon, Inc., priority 2005, published 2006)

What was measured:
FGFR = experiment: Kinase inhibition profile, related RTK; format: biochemical; conditions: ATP concentration of 1 nM
[1] = test system: rat model of oxygen-induced retinopathy; experiment: Preretinal neovascularization, rat OIR model, intravitreal injection; format: in vivo, Sprague-Dawley rats; conditions: for % Inhibition (vs. vehicle-injected eye) / Median NV / NV Range: 5 μl intravitreal; for % Inhibition (vs. vehicle-injected eye): preretinal NV; for Median NV / NV Range: NV clockhour score
From the text: METHODS: Pregnant Sprague-Dawley rats were received at 14 days gestation and subsequently gave birth on Day 22±1 of gestation. Immediately following parturition, pups were pooled and randomized into separate litters (n=17 pups/litter), placed into separate shoebox cages inside oxygen delivery chamber, and subjected to an oxygen-exposure profile from Day 0-14 postpartum. Litters were then placed into room air from Day 14/0 through Day 14/6 (days 14-20 postpartum). Additionally on Day 14/0, each pup was randomly assigned as an oxygen-exposed control or into various treatment groups. […] At Day 14/6 (20 days postpartum), all animals in both studies were euthanized.
(§1) Immediately following euthanasia, retinas from all rat pups were harvested, fixed in 10% neutral buffered formalin for 24 hours, subjected to ADPase staining, and fixed onto slides as whole mounts. Digital images were acquired from each retinal flat mount that was adequately prepared. Computerized image analysis was used to obtain a NV clockhour score from each readable sample. Each clockhour out of 12 total per retina was assessed for the presence or absence of preretinal NV. Statistical comparisons using median scores for NV clockhours from each treatment group were utilized in nonparametric analyses. Each noninjected pup represented one NV score by taking the average value of both eyes and was used in comparisons against each dosage group. Because the pups were randomly assigned and no difference was observed between oxygen-exposed control pups from all litters, the NV scores were combined for all treatment groups. P≦0.05 was considered statistically significant.

rat OIR model = experiment: Preretinal neovascularization, rat OIR model, oral gavage; format: in vivo, Sprague-Dawley rats; conditions: for % Inhibition (vs vehicle-injected eye): preretinal NV
Experimental: as §1
METHODS: Pregnant Sprague-Dawley rats were received at 14 days gestation and subsequently gave birth on Day 22±1 of gestation. Immediately following parturition, pups were pooled and randomized into separate litters (n=17 pups/litter), placed into separate shoebox cages inside oxygen delivery chamber, and subjected to an oxygen-exposure profile from Day 0 to Day 14 postpartum. Litters were then placed into room air from Day 14/0 through Day 14/6 (days 14-20 postpartum). Additionally on Day 14/0, each pup was randomly assigned as oxygen-exposed controls, vehicle treated, or drug-treated at 1.5, 5, 10 mg/kg, p.o., BID. At Day 14/6 (20 days postpartum), all animals in both studies were euthanized and retina whole mounts were prepared as described in Example 1 above.

[2] = test system: VEGF-induced retinal vascular permeability; experiment: VEGF-induced retinal vascular permeability, intravitreal injection, rat; format: in vivo, Sprague-Dawley rats; conditions: 10 μl intravitreal
Experimental: METHODS: Adult Sprague-Dawley rats were anesthetized with intramuscular ketamine/xylazine and their pupils dilated with topical cycloplegics. […] Ten μl of each compound was intravitreally injected in each treatment eye (n=6 eyes per group). Three days following first intravitreal injection, all animals received an intravitreal injection of 10 μl 400 ng hr VEGF in both eyes. Twenty-four hours post-injection of VEGF, intravenous infusion of 3% Evans blue dye was performed in all animals, where 50 mg/kg of Evans blue dye was injected via the lateral tail vein during general anesthesia. After the dye had circulated for 90 minutes, the rats were euthanized. The rats were then systemically perfused with balanced salt solution, and then both eyes of each rat were immediately enucleated and the retinas harvested using a surgical microscope. After measurement of the retinal wet weight, the Evans blue dye was extracted by placing the retina in a 0.2 ml formamide (Sigma) and then the homogenized and ultracentrifuged. Blood samples were centrifuged and the plasma diluted 100 fold in formamide. For both retina and plasma samples, 60 μl of supernatant was used to measure the Evans blue dye absorbance (ABS) with at 620/740 nm. The blood-retinal barrier breakdown and subsequent retinal vascular permeability as measured by dye absorbance were calculated as means±s.e.m. of net ABS/wet weight/plasma ABS. A two-tailed Student's t-test was used for pair wise comparisons between OS and OD eyes in each group. One way ANOVA was used to determine an overall difference between treatment means, where P≦0.05 was considered significant.

[3] = test system: diabetes-induced retinal vascular permeability; experiment: Diabetes-induced retinal vascular permeability, oral gavage, STZ rat model
Experimental: METHODS: Diabetes was induced in male Long-Evans rats with 65 mg/kg streptozotocin (STZ) after an overnight fast. […] After 2 weeks, jugular vein catheters were implanted 1 day prior to experimentation for the infusion of indicator dye. Retinal vascular permeability, RVP, was measured using Evan's blue albumin permeation (45 mg/kg) after a 2 hour circulation period.

Compound: Cc1ccc(F)c(NC(=O)Nc2ccc(-c3cccc4[nH]nc(N)c34)cc2)c1 [AL-39324, N-[4-[3-amino-1H-indazol-4-yl)phenyl]-N′-(2-fluoro-5-methylphenyl)urea]
- IC50 (FGFR): > 12.5 µM
- efficacy against preretinal NV ([1]; 0.1% treated eyes): Efficacy was not observed
- % Inhibition (vs. vehicle-injected eye) ([1]; 0.1%): 37%
- Median NV ([1]; 0.1%): 2.835
- NV Range ([1]; 0.1%): 1.1-5.3
- % Inhibition (vs. vehicle-injected eye) ([1]; 0.3%): 100%
- Median NV ([1]; 0.3%): 0
- NV Range ([1]; 0.3%): 0-5
- % Inhibition (vs. vehicle-injected eye) ([1]; 0.6%): 100%
- Median NV ([1]; 0.6%): 0
- NV Range ([1]; 0.6%): 0-1.1
- % Inhibition (vs. vehicle-injected eye) ([1]; 1%): 100%
- Median NV ([1]; 1%): 0
- NV Range ([1]; 1%): 0-2
- inhibition of preretinal NV ([1]; between 0.3%-1% suspensions, intravitreal): 100%
- Median NV (rat OIR model; 3 mg/kg in PEG 400, p.o.): 7.5
- NV Range (rat OIR model; 3 mg/kg in PEG 400, p.o.): 3.8-9.8
- % Inhibition (vs vehicle-injected eye) (rat OIR model; 3 mg/kg in PEG 400, p.o. (per day, BID)): −1.4%
- decrease in NV (rat OIR model; 3 mg/kg/day p.o.): did not have a significant decrease in NV
- Median NV (rat OIR model; 10 mg/kg in PEG 400, p.o.): 1.105
- NV Range (rat OIR model; 10 mg/kg in PEG 400, p.o.): 0-8
- % Inhibition (vs vehicle-injected eye) (rat OIR model; 10 mg/kg in PEG 400, p.o. (per day, BID)): 86.4%
- Median NV (rat OIR model; 20 mg/kg in PEG 400, p.o.): 0
- NV Range (rat OIR model; 20 mg/kg in PEG 400, p.o.): 0
- % Inhibition (vs vehicle-injected eye) (rat OIR model; 20 mg/kg in PEG 400, p.o. (per day, BID)): 100%
- inhibition of preretinal NV (rat OIR model; 20 mg/kg/day p.o.): complete inhibition of preretinal NV
- decrease of retinal vascular permeability as compared to vehicle-injected eyes ([2]; 0.3%): 50%
- mean ABS±s.e.m. (net ABS/wet weight/plasma ABS, Evans blue) ([2]; 0.3%): 4.84±0.64
- decrease of retinal vascular permeability as compared to vehicle-injected eyes ([2]; 1.0%): 61%
- mean ABS±s.e.m. (net ABS/wet weight/plasma ABS, Evans blue) ([2]; 1.0%): 3.87±0.62
- decrease of retinal vascular permeability as compared to vehicle-injected eyes ([2]; 3%): 53%
- mean ABS±s.e.m. (net ABS/wet weight/plasma ABS, Evans blue) ([2]; 3.0%): 4.75±0.40
- RVP ([3]; NDM treated at 5 mg/kg/d): unchanged
- Blood glucose levels and body weights, DM control vs DM treatment groups ([3]; oral, DM rats): not different
- tolerability, systemic or ERG side effects ([3]; oral, NDM and DM groups): well tolerated by both NDM and DM groups with no observed systemic or ERG side effects
